Source: patent US20240099344A1, “HYDROXY- AND METHOXY-SUBSTITUTED FLAVONOIDS AND THEIR USE” (Firmenich SA, priority 2021, published 2024)

Legend:
[1] = test system: human sensory panel (sweet, bitter or astringent taste); test: Sensory testing in model bases (human sensory panel, 20 trained panelists); type: in vivo; details: 10 ppm; scale of −5 (strong masking effect) to 5 (strong enhancing effect); 0 = reference water solution containing 4% sucrose or 10 ppm mixture of Limonin, Naringin and Nomilin
Text: Certain HMF compounds were tasted by a human sensory panel to assess their ability to reduce bitterness, reduce astringency, and enhance sweetness. The panel consisted of 20 trained panelists evaluating the samples at 10 ppm for taste properties (sweet, bitter or astringent) on a scale of −5 to 5 (−5 denoted strong masking effect and 5 denoted strong enhancing effect, 0 being the intensity of a reference water solution containing 4% sucrose or 10 ppm mixture of Limonin, Naringin and Nomilin).

[2] = test system: human sensory panel (bitter and astringent taste); test: Sensory testing in applications (human sensory panel, 8 experts); type: in vivo; details: scale of −5 (strong masking) to 5 (strong enhancing), 0 = reference application; for Smart Protein Beverage Astringent / Smart Protein Beverage Bitter / Smart Protein Beverage Off-flavor: 10 ppm in smart protein beverage
Text: Certain HMF compounds were tasted by a human sensory panel to assess their ability to reduce bitterness and astringency. The panel consisted of 8 experts evaluating the samples at 10 ppm for taste properties (bitter and astringent) on a scale of −5 to 5 (−5 denoted strong masking effect and 5 denoted strong enhancing effect, 0 being the intensity of a reference application in coffee, tea or pomegranate juice, smart protein beverage).

Row | Structure (SMILES) | Astringency [1] | Bitterness [1] | Sweetness [1] | Coffee Astringency ([2]; 10 ppm in coffee) | Coffee Bitterness ([2]; 10 ppm in coffee) | Pomegranate Juice Astringency ([2]; 10 ppm in pomegranate juice) | Pomegranate Juice Bitterness ([2]; 10 ppm in pomegranate juice) | Smart Protein Beverage Astringent [2] | Smart Protein Beverage Bitter [2] | Smart Protein Beverage Off-flavor [2] | Tea Astringency ([2]; 10 ppm in tea) | Tea Bitterness ([2]; 10 ppm in tea)
1 | COc1c(O)cc(O)c2c(=O)cc(-c3ccccc3)oc12 [Compound 109, 5,7-dihydroxy-8-methoxyflavone] | −0.64 | −1.54 | −0.58 |  |  |  |  |  |  |  |  | 
2 | COc1cc(O)cc2c1C(=O)CC(c1ccccc1)O2 (stereo not drawn) [Compound 107, 5-methoxy-7-hydroxyflavanone] | −1.56 | −2.56 | 0.08 |  |  |  |  |  |  |  |  | 
3 | COc1c(O)cc2oc(-c3ccccc3)cc(=O)c2c1O [Compound 104, 5,7-dihydroxy-6-methoxyflavone] | −0.48 | −1.08 | 0.17 |  |  |  |  |  |  |  |  | 
4 | COc1cc(-c2oc3cc(O)cc(O)c3c(=O)c2O)ccc1O [Compound 106, 3,4′,5,7-tetrahydroxy-3′-methoxyflavone] | −0.34 | −1.47 | 0.58 |  |  |  |  |  |  |  |  | 
5 | COc1ccc(-c2cc(=O)c3c(O)c(OC)c(O)c(OC)c3o2)cc1 [Compound 101, 5,7-dihydroxy-6,8,4′-trimethoxyflavone] | −1.21 | −1.59 | −0.23 | 0.17 | −0.58 | 0.67 | 0.31 | 0.4 | −0.6 | −0.1 | 1.00 | 0.83
6 | O=c1cc(-c2ccc(O)cc2)oc2cc(O)c(O)c(O)c12 [Compound 103, 5,6,7,4′-tetrahydroxyflavone] | −0.35 | −1.28 | 0.50 |  |  |  |  | 0.25 | 0.00 | −0.50 |  | 
7 | COc1ccc(-c2cc(=O)c3c(O)c(OC)c(O)cc3o2)cc1OC [Compound 105, 5,7-dihydroxy-6,3′,4′-trimethoxyflavone] | −0.53 | −2.02 | 0.58 |  |  |  |  | −1.0 | −0.80 | −0.80 |  | 
8 | COc1ccc(-c2oc3cc(OC)c(OC)c(O)c3c(=O)c2OC)cc1O [Compound 108, 3,6,7,4′-tetramethoxy-5,3′-dihydroxyflavone] | −1.01 | −1.94 | −0.08 |  |  |  |  | −0.33 | −0.42 | −0.33 |  | 
